Results published in patent US6521662B2, “Ceramide-like compounds having antioxidant property and a method for preparation thereof, and a cosmetic composition containing the same” (Pacific Corporation, priority 2000, dated 2003).

Key:
[1] = Solubility of natural ceramide and ceramide-like compounds in cosmetic solvents; assay type: physicochemical; conditions: 20° C.; dissolved at 80° C. then cooled to 20° C.
Experimental: The solubility of a natural ceramide and of ceramide-like compounds:
Ceramide Type 3 represented by the following formula (III) has been mainly used in cosmetics. Accordingly, in this experiment were compared solubility of the ceramide Type 3 (obtained from bovine brain) and the ceramide-like compounds of Examples 1 to 3 in various solvents such as ethanol, which have been widely used in cosmetics. Samples were dissolved in the solvents of 80° C. then cooled to 20° C.

[2] = Anti-oxidative activity using DPPH; conditions: 37° C. for 30 minutes; UV spectrophotometer
Experimental: Anti-oxidative activity using DPPH
Diphenylpicrylhydrazyl(DPPH) has been known as a radical reaction inhibitor which is stabilized by the radical reaction. Also, it has a chromophoric property with compounds having anti-oxidative activity. Therefore, this experiment utilized the above property.
About 50 ml of DPPH was introduced into the test tube. And samples were added dropwise thereto. After addition, the test tube was maintained in constant temperature bath of 37° C. for 30 minutes. The extent of color development was measured by UV spectrophotometer.

[3] = Anti-oxidative activity using linoleic acid; conditions: ammoniumthiocyanate, after 3 minutes, lower absorbance means higher anti-oxidative activity
Experimental: Anti-oxidative activity using linoleic acid
Linoleic acid is easily oxidized to be peroxide due to double bond contained therein. Therefore, this experiment utilized the above property.
The control solution employed in this experiment was prepared by adding 2.88 ml of 2.5% linoeic acid in ethanol and 9 ml of 40 mmol phosphate buffer(pH 7.0) to 200 ml of ethanol. This control solution was maintained in the dark of 40° C. And, sample solutions were prepared by adding 9.7 ml of 75% ethanol, 0.1 ml of 30% ammoniumthiocyanate and 0.1 ml of each sample, to 0.1 ml of the control solution. After 3 minutes, the absorbance was measured at 500 nm by using a UV spectrophotometer. Lower absorbance value means higher anti-oxidative activity.

Row | Compound | Solubility in Cetyl octanoate [1] | Solubility in Ethanol [1] | Solubility in Isopropyl palmitate [1] | Solubility in Octyl Palmitate [1] | Solubility in Octyl dodecanol [1] | Color development with DPPH (Experiment Example 5-1) [2] | Absorbance at 500 nm (Experiment Example 5-2) [3]
1 | Cc1c(C)c2c(c(C)c1OC(=O)CCC(=O)N(CCO)CC(O)CN(CCO)C(=O)CCC(=O)Oc1c(C)c(C)c3c(c1C)CCC(C)(CCCC(C)CCCC(C)CCCC(C)C)O3)CCC(C)(CCCC(C)CCCC(C)CCCC(C)C)O2 (stereo not drawn) [Example 1, 1,3-bis(N-(2-hydroxyethyl)-α-tocopherylsuccinoylamino) -2-hydroxypropane] | >5% wt/wt % | >5% wt/wt % | >5% wt/wt % | >5% wt/wt % | >5% wt/wt % | Brown | 0.23
2 | CC(=O)Oc1c(C)c(C)c2c(c1C)CCC(C)(CCC[C@H](C)CCC[C@H](C)CCCC(C)C)O2 (stereo partly drawn) [Vitamin E acetate, reference compound] | – | – | – | – | – | No color change | 0.44
3 | Vitamin E [reference compound] | – | – | – | – | – | No color change | 0.23

Second part, led by results:

Row | Solubility in Cetyl octanoate [1] | Solubility in Ethanol [1] | Solubility in Isopropyl palmitate [1] | Solubility in Octyl Palmitate [1] | Solubility in Octyl dodecanol [1] | Compound | Color development with DPPH (Experiment Example 5-1) [2] | Absorbance at 500 nm (Experiment Example 5-2) [3]
4 | >5% wt/wt % | >5% wt/wt % | >5% wt/wt % | >5% wt/wt % | >5% wt/wt % | Cc1cc(OC(=O)CCC(=O)N(CCO)CC(O)CN(CCO)C(=O)CCC(=O)Oc2cc(C)c3c(c2)CCC(C)(CCCC(C)CCCC(C)CCCC(C)C)O3)cc2c1OC(C)(CCCC(C)CCCC(C)CCCC(C)C)CC2 (stereo not drawn) [Example 2, 1,3-bis(N-(2-hydroxyethyl)-δ-tocopherylsuccinoylamino) -2-hydroxypropane] | Brown | 0.29
5 | >5% wt/wt % | >5% wt/wt % | >5% wt/wt % | >5% wt/wt % | >5% wt/wt % | Cc1c(OC(=O)CCC(=O)N(CCO)CC(O)CN(CCO)C(=O)CCC(=O)Oc2cc3c(c(C)c2C)OC(C)(CCCC(C)CCCC(C)CCCC(C)C)CC3)cc2c(c1C)OC(C)(CCCC(C)CCCC(C)CCCC(C)C)CC2 (stereo not drawn) [Example 3, 1,3-bis(N-(2-hydroxyethyl)-γ-tocopherylsuccinoylamino)-2-hydroxypropane] | Brown | 0.30
6 | <1% wt/wt % | <1% wt/wt % | <1% wt/wt % | <1% wt/wt % | <1% wt/wt % | CCCCCCCCCCCCCCCCCCCCCCCC(=O)NC(CO)C(O)C(O)CCCCCCCCCCCCCC (stereo not drawn) [Natural Ceramide (type 3), reference compound] | – | –
